Test results published in patent US9884806B2, “Cyclic vinylogous amides as bromodomain inhibitors” (ICAHN SCHOOL OF MEDICINE AT MOUNT SINAI, priority 2013, dated 2018).

How the values were obtained:
[1] = molecular target: T1, first bromodomain (BrD1) of human BRD4 (Homo sapiens, UniProt O60885); test: Fluorescence anisotropy binding assay (competition with FITC-labeled MS417 probe); settings: FITC-MS417 probe 80 nM, PBS pH 7.4, 1 hour, 25° C., read-out: BRD4_1 IC50
T1 construct: the first bromodomain (BrD1) of human BRD4; poly-His (cleaved yes); made in house
Method: Fluorescence Anisotropy Binding Assay
Expression and purification of the first bromodomain (BrD1) of human BRD4 in poly-His tag form was performed using a procedure described in the literature [See Zeng et al. Structure 16, 643-652 (2008) and Zhang et al., J Biol Chem 287, 28840-28851 (2012).] The protein was purified by using affinity chromatography on a nickel-IDA column (Invitrogen), followed by the removal of poly-His tag by thrombin cleavage.
Binding affinity of the newly synthesized compounds to the BRD4 BrD1 was assessed in a fluorescence anisotropy assay using a fluorescein isothiocyanate (FITC)-labeled MS417 as an assay probe (Zhang et al. 2008 op.cit.). Competition binding was performed with a BrD protein (0.25 to 1 μM) and the fluorescent probe (80 nM), and increasing concentration of unlabeled competing ligand in a PBS buffer (pH 7.4) in total volume of 80 μL. Measurements were obtained after 1 hour incubation of the fluorescent ligand and the protein at 25° C. with Safire 2 microplate reader (Tecan). In the assay, fluorescent ligand concentration was ≦2Kd, and protein concentration was set at which 50-80% of fluorescent ligand is bound. Dissociation constant of a competing ligand was calculated with the correction to Cheng-Prussoff equation introduced by Nicolovska-Coleska and colleagues [Nikolovska-Coleska, Z. et al., Anal Biochem 332, 261-273 (2004). Assuming one-site competitive binding model, the equation used to calculate Ki's from IC50 values recovered from fitting data using Prism:
[formula] where [I50] is the concentration of free inhibitor at 50% inhibition, [L50], the concentration of free labeled ligand at 50% inhibition, and [P0], concentration of free protein at 0% inhibition. Note that Kd for each protein-probe pair is the limit of resolvable Ki in a competition assay.

BRD4_2 = molecular target: T2, BRD4_2 (Homo sapiens, UniProt O60885); test: Fluorescence anisotropy binding assay (competition with FITC-labeled MS417 probe), BRD4_2; settings: FITC-MS417 probe 80 nM, PBS pH 7.4, 1 hour, 25° C.
T2 construct: contains two tandem bromodomains (BrD1 and BrD2)

`COc1ccc(NC(=O)c2ccc(NC3=C(C)C(=O)CC3)cc2OC)cc1` [Example 04-71, 2-methoxy-N-(4-methoxyphenyl)-4-((2-methyl-3-oxocyclopent-1-en-1-yl)amino)-benzamide] was tested. Which IC50 [1] did it give?
Its IC50 is 1 to 10 µM.

What about the IC50 (BRD4_2) of the same compound?
Its IC50 is 1 to 10 µM.

What does the source list for `COc1cc(NC2=C(C)C(=O)CC2)ccc1C(=O)Nc1ccccc1C` [Example 04-72, 2-methoxy-4-((2-methyl-3-oxocyclopent-1-en-1-yl)amino)-N-(o-tolyl)benzamide]?
IC50 [1]: < 1 µM; IC50 (BRD4_2): 1 to 10 µM

How did the IC50 [1] turn out when `COc1cc(NC2=C(C)C(=O)CC2)ccc1C(=O)Nc1cccc(C)c1` [Example 04-73, 2-methoxy-4-((2-methyl-3-oxocyclopent-1-en-1-yl)amino)-N-(m-tolyl)benzamide] was run?
Its IC50 is 1 to 10 µM.

What about the IC50 (BRD4_2) of the same compound?
Its IC50 is 1 to 10 µM.

Which IC50 [1] does the source give for `COc1cc(NC2=C(C)C(=O)CC2)ccc1C(=O)Nc1ccc(C)cc1` [Example 04-74, 2-methoxy-4-((2-methyl-3-oxocyclopent-1-en-1-yl)amino)-N-(p-tolyl)benzamide] here?
Its IC50 is 1 to 10 µM.

And the IC50 (BRD4_2)?
Its IC50 is 1 to 10 µM.

Which IC50 [1] does the source give for `CNC(=O)c1ccc(NC2=C(C)C(=O)CC2)c(C)c1` [Example 04-77, N,3-dimethyl-4-((2-methyl-3-oxocyclopent-1-en-1-yl)amino)benzamide] here?
Its IC50 is 1 to 10 µM.

And the IC50 (BRD4_2)?
The IC50 was greater than 10 µM.

What does the source list for `CC1=C(Nc2ccc(C(=O)NC3CCCCC3)cc2C)CCC1=O` [Example 04-78, N-cyclohexyl-3-methyl-4-((2-methyl-3-oxocyclopent-1-en-1-yl)amino)benzamide]?
IC50 [1]: 1 to 10 µM; IC50 (BRD4_2): 1 to 10 µM

With `CC1=C(Nc2ccc(C(=O)Nc3cccc4ccccc34)cc2C)CCC1=O` [Example 04-79, 3-methyl-4-((2-methyl-3-oxocyclopent-1-en-1-yl)amino)-N-(naphthalen-1-yl)benzamide] as the compound, how does the IC50 [1] read?
The IC50 was 1 to 10 µM.

What about the IC50 (BRD4_2) of the same compound?
The IC50 was 1 to 10 µM.

For `CC1=C(Nc2ccc(C(=O)Nc3ccccc3)cc2C)CCC1=O` [Example 04-80, 3-methyl-4-((2-methyl-3-oxocyclopent-1-en-1-yl)amino)-N-phenylbenzamide], which IC50 [1] is on record?
Its IC50 is 1 to 10 µM.

And the IC50 (BRD4_2)?
Its IC50 is 1 to 10 µM.

With `COc1ccccc1NC(=O)c1ccc(NC2=C(C)C(=O)CC2)c(C)c1` [Example 04-81, N-(2-methoxyphenyl)-3-methyl-4-((2-methyl-3-oxocyclopent-1-en-1-yl)amino)-benzamide] as the compound, how does the IC50 [1] read?
The IC50 was 1 to 10 µM.

And the IC50 (BRD4_2)?
The IC50 was 1 to 10 µM.

With `COc1cccc(NC(=O)c2ccc(NC3=C(C)C(=O)CC3)c(C)c2)c1` [Example 04-82, N-(3-methoxyphenyl)-3-methyl-4-((2-methyl-3-oxocyclopent-1-en-1-yl)amino)-benzamide] as the compound, how does the IC50 [1] read?
Its IC50 is 1 to 10 µM.

What about the IC50 (BRD4_2) of the same compound?
Its IC50 is 1 to 10 µM.

What does the source list for `COc1ccc(NC(=O)c2ccc(NC3=C(C)C(=O)CC3)c(C)c2)cc1` [Example 04-83, N-(4-methoxyphenyl)-3-methyl-4-((2-methyl-3-oxocyclopent-1-en-1-yl)amino)-benzamide]?
IC50 [1]: 1 to 10 µM; IC50 (BRD4_2): 1 to 10 µM

Which results are given for `CC1=C(Nc2ccc(C(=O)Nc3ccccc3C)cc2C)CCC1=O` [Example 04-84, 3-methyl-4-((2-methyl-3-oxocyclopent-1-en-1-yl)amino)-N-(o-tolyl)benzamide]?
IC50 [1]: 1 to 10 µM; IC50 (BRD4_2): 1 to 10 µM

For `CC1=C(Nc2ccc(C(=O)Nc3cccc(C)c3)cc2C)CCC1=O` [Example 04-85, 3-methyl-4-((2-methyl-3-oxocyclopent-1-en-1-yl)amino)-N-(m-tolyl)benzamide], which IC50 [1] is on record?
The IC50 was 1 to 10 µM.

And the IC50 (BRD4_2)?
The IC50 was 1 to 10 µM.

Which results are given for `CC1=C(Nc2ccc(C(=O)Nc3ccc(C)cc3)cc2C)CCC1=O` [Example 04-86, 3-methyl-4-((2-methyl-3-oxocyclopent-1-en-1-yl)amino)-N-(p-tolyl)benzamide]?
IC50 [1]: 1 to 10 µM; IC50 (BRD4_2): 1 to 10 µM

Which IC50 [1] does the source give for `COC(=O)c1cccc(NC(=O)c2ccc(Cl)c(NC3=C(C)C(=O)CCC3)c2)c1C` [Example 04-92, methyl 3-(4-chloro-3-((2-methyl-3-oxocyclohex-1-en-1-yl)amino)benzamido)-2-methylbenzoate] here?
The IC50 was 1 to 10 µM.

What about the IC50 (BRD4_2) of the same compound?
The IC50 was greater than 10 µM.

With `COC(=O)c1ccc(C)c(NC(=O)c2ccc(Cl)c(NC3=C(C)C(=O)CCC3)c2)c1` [Example 04-93, methyl 3-(4-chloro-3-((2-methyl-3-oxocyclohex-1-en-1-yl)amino)benzamido)-4-methylbenzoate] as the compound, how does the IC50 [1] read?
The IC50 was 1 to 10 µM.

What about the IC50 (BRD4_2) of the same compound?
Its IC50 is 1 to 10 µM.

Which IC50 [1] does the source give for `CC1=C(Nc2cc(C(=O)Nc3cccc(C(=O)O)c3C)ccc2Cl)CCCC1=O` [Example 04-95, 3-(4-chloro-3-((2-methyl-3-oxocyclohex-1-en-1-yl)amino)benzamido)-2-methylbenzoic acid] here?
The IC50 was greater than 10 µM.

What about the IC50 (BRD4_2) of the same compound?
Its IC50 is greater than 10 µM.

With `CC1=C(Nc2cc(C(=O)Nc3cc(C(=O)O)ccc3C)ccc2Cl)CCCC1=O` [Example 04-96, 3-(4-Chloro-3-((2-methyl-3-oxocyclohex-1-en-1-yl)amino)benzamido)-4-methylbenzoic acid] as the compound, how does the IC50 [1] read?
Its IC50 is 1 to 10 µM.

What about the IC50 (BRD4_2) of the same compound?
Its IC50 is greater than 10 µM.

`CC1=C(Nc2cc(C(=O)Nc3ccc(C(=O)O)cc3C)ccc2Cl)CCCC1=O` [Example 04-97, 4-(4-chloro-3-((2-methyl-3-oxocyclohex-1-en-1-yl)amino)benzamido)-3-methylbenzoic acid] was tested. Which IC50 [1] did it give?
Its IC50 is 1 to 10 µM.

And the IC50 (BRD4_2)?
The IC50 was greater than 10 µM.

How did the IC50 [1] turn out when `COc1ccc(NC(=O)Cc2ccc(NC3=C(C)C(=O)CCC3)cc2)cc1` [Example 04-99, N-(4-methoxyphenyl)-2-(4-((2-methyl-3-oxocyclohex-1-en-1-yl)amino)phenyl)-acetamide] was run?
The IC50 was 1 to 10 µM.

What about the IC50 (BRD4_2) of the same compound?
The IC50 was 1 to 10 µM.

Which results are given for `COc1ccc(NC(=O)c2cc(NC3=C(C)C(=O)CCC3)cc3ccccc23)cc1` [Example 04-105, N-(4-methoxyphenyl)-3-((2-methyl-3-oxocyclohex-1-en-1-yl)amino)-1-naphthamide]?
IC50 [1]: < 1 µM; IC50 (BRD4_2): 1 to 10 µM

For `COC(=O)c1ccc(NC2=C(C)C(=O)CCC2)c(Cl)c1` [Example 05-12, methyl 3-chloro-4((2-methyl-3-oxocyclohex-1-en-1-yl)amino)benzoate], which IC50 [1] is on record?
Its IC50 is 1 to 10 µM.

And the IC50 (BRD4_2)?
Its IC50 is 1 to 10 µM.

`COc1ccccc1NC(=O)c1ccc(NC2=C(C)C(=O)CCC2)c(Cl)c1` [Example 05-14, 3-chloro-N-(2-methoxyphenyl)-4-((2-methyl-3-oxocyclohex-1-en-1-yl)amino)benzamide] was tested. Which IC50 [1] did it give?
Its IC50 is less than 1 µM.

What about the IC50 (BRD4_2) of the same compound?
The IC50 was 1 to 10 µM.

`COc1ccc(NC(=O)c2ccc(NC3=C(C)C(=O)CC3)c(F)c2)cc1` [Example 05-17, 3-fluoro-N-(4-methoxyphenyl)-4-((2-methyl-3-oxocyclopent-1-en-1-yl)amino)benzamide] was tested. Which IC50 [1] did it give?
Its IC50 is 1 to 10 µM.

And the IC50 (BRD4_2)?
The IC50 was 1 to 10 µM.

What does the source list for `COc1ccc(NC(=O)c2ccc(NC3=C(C)C(=O)CC3)c(Br)c2)cc1` [Example 05-18, 3-bromo-N-(4-methoxyphenyl)-4-((2-methyl-3-oxocyclopent-1-en-1-yl)amino)benzamide]?
IC50 [1]: < 1 µM; IC50 (BRD4_2): 1 to 10 µM

For `N#CC1=C(Nc2cccc(Cl)c2)CCCC1=O` [Example 05-32, 2-((3-chlorophenyl)amino)-6-oxocyclohex-1-enecarbonitrile], which IC50 [1] is on record?
The IC50 was greater than 10 µM.

And the IC50 (BRD4_2)?
The IC50 was greater than 10 µM.

How did the IC50 [1] turn out when `N#CC1=C(Nc2cc(C(=O)O)ccc2Cl)CCCC1=O` [Example 05-33, 4-chloro-3-((2-cyano-3-oxocyclohex-1-en-1-yl)amino)benzoic acid] was run?
Its IC50 is greater than 10 µM.

And the IC50 (BRD4_2)?
Its IC50 is greater than 10 µM.

What does the source list for `Cc1ccccc1NC(=O)c1ccc(Cl)c(NC2=C(C#N)C(=O)CCC2)c1` [Example 05-34, 4-chloro-3-((2-cyano-3-oxocyclohex-1-en-1-yl)amino)-N-(o-tolyl)benzamide]?
IC50 [1]: > 10 µM; IC50 (BRD4_2): > 10 µM

For `COc1ccc(NC(=O)c2ccc(Cl)c(NC3=C(C#N)C(=O)CCC3)c2)cc1` [Example 05-35, 4-chloro-3-((2-cyano-3-oxocyclohex-1-en-1-yl)amino)-N-(4-methoxyphenyl)benzamide], which IC50 [1] is on record?
The IC50 was greater than 10 µM.

What about the IC50 (BRD4_2) of the same compound?
The IC50 was greater than 10 µM.

For `COc1ccc(NC(=O)c2ccc(Cl)c(NC3=C(C#N)C(=O)CCC3)c2)c(C)c1` [Example 05-36, 4-chloro-3-((2-cyano-3-oxocyclohex-1-en-1-yl)amino)-N-(4-methoxy-2-methylphenyl)benzamide], which IC50 [1] is on record?
Its IC50 is greater than 10 µM.

And the IC50 (BRD4_2)?
The IC50 was greater than 10 µM.

`CC1=C(Nc2cccc(NC(=O)c3ccccc3C)c2Cl)CCCC1=O` [Example 05-50, N-(2-chloro-3-((2-methyl-3-oxocyclohex-1-en-1-yl)amino)phenyl)-2-methylbenzamide] was tested. Which IC50 [1] did it give?
Its IC50 is 1 to 10 µM.

And the IC50 (BRD4_2)?
Its IC50 is greater than 10 µM.

How did the IC50 [1] turn out when `CC1=C(Nc2cc(NS(=O)(=O)c3ccccc3Cl)ccc2Cl)CCC1=O` [Example 05-56, N-(4-chloro-3-((2-methyl-3-oxocyclopent-1-en-1-yl)amino)-phenyl)-2-chlorobenzenesulfonamide] was run?
The IC50 was less than 1 µM.

What about the IC50 (BRD4_2) of the same compound?
Its IC50 is less than 1 µM.

How did the IC50 [1] turn out when `CC1=C(Nc2cccc(NS(=O)(=O)C3CCCCC3)c2Cl)CCCC1=O` [Example 05-71, N-(2-chloro-3-((2-methyl-3-oxocyclohex-1-en-1-yl)amino)phenyl)-cyclohexanesulfonamide] was run?
Its IC50 is less than 1 µM.

What about the IC50 (BRD4_2) of the same compound?
The IC50 was 1 to 10 µM.
